Patent publication US20150133297A1, “NEW ANTIFUNGAL COMPOSITIONS” (DSM IP ASSETS B.V., priority 2012, published 2015)
Values joined by “and” are separate entries in the source; they are usually repeats but may differ in a detail not shown here. Equal entries are not always repeated.

Tested on: Penicillium italicum
Test: Treatment of oranges (Examples 6-9): wounded, inoculated, wound treated with antifungal composition
Assay type: in vivo
Conditions: for Observed antifungal activity O (%): oranges, 20° C.
Procedure: During incubation, mould growth on the strawberries was assessed in a twofold manner: (i) the number of moulded strawberries per total of 12 strawberries was counted; and (ii) the antifungal activity (in %) of the individual and combined active ingredients was determined by calculating the reduction in mould growth observed on the strawberries treated with the antifungal composition in comparison to the mould growth on the strawberries treated with the control composition. The expected antifungal activity (E in %) of the combined antifungal composition comprising both active ingredients was calculated according to the Colby equation (Colby, 1967): […]
Eight fresh, organic oranges were used per treatment. Each orange was soaked in a 180 ppm hypochlorite solution for 10 minutes, then rinsed thoroughly with fresh tap water and dried. The peel of each disinfected orange was wounded once using a cork borer according to the method described by de Lapeyre de Bellaire and Dubois (1987). Subsequently, each wound was inoculated with 10 μl of a Penicillium italicum suspension containing 5×10^5 of spores/ml. After incubation for 3 hours at 20° C., each wound and the orange peel area of 1 cm around the wound was treated with in total 150 μl of a freshly prepared aqueous antifungal composition comprising either 500 ppm natamycin (DSM Food Specialties, Delft, The Netherlands), 500 ppm fenpropidin or both. Each antifungal composition also comprised 3.2% (w/w) beeswax, 0.8% (w/w) glycerol, 0.7% (w/w) polyoxyethylene sorbitan monostearate (Tween 60), 0.1% (w/w) polyoxyethylene sorbitan monooleate (Tween 80), 0.05% (w/w) methylhydroxyethyl-cellulose (MHEC), 0.03% (w/w) anti-foaming agent, 0.02% (w/w) xanthan gum, 0.02% (w/w) citric acid, 0.01% (w/w) lactic acid and 0.01% potassium sorbate. A composition without natamycin or fenpropidin was used as control. […] The treated oranges were incubated in a closed box in the dark at 20° C. and assessed on mould growth during a 28-day incubation period. The antifungal activity (in %) of the individual and combined active ingredients was determined by calculating the reduction in mould growth observed on the oranges treated with the antifungal composition in comparison to the mould growth on the oranges treated with the control composition according to the Colby method (Colby, 1967) as described in Example 5.
The experiment was conducted as described in Example 6, except for the fact that each wounded and inoculated orange was treated with 150 μl of a freshly prepared aqueous antifungal composition comprising either 250 ppm natamycin (DSM Food Specialties, Delft, The Netherlands), 250 ppm fenpropidin or both. During the 26-day incubation period, the treated oranges were assessed on mould growth according to the two methods described in Example 5.
The experiment was conducted as described in Example 6, except for the fact that each wounded and inoculated orange was treated with 150 μl of a freshly prepared aqueous antifungal composition comprising either 500 ppm natamycin (DSM Food Specialties, Delft, The Netherlands), 400 ppm spiroxamine or both. During the 26-day incubation period, the treated oranges were assessed on mould growth according to the two methods described in Example 5.
The experiment was conducted as described in Example 6, except for the fact that each wounded and inoculated orange was treated with 150 μl of a freshly prepared aqueous antifungal composition comprising either 250 ppm natamycin (DSM Food Specialties, Delft, The Netherlands), 200 ppm spiroxamine or both. During the 26-day incubation period, the treated oranges were assessed on mould growth according to the two methods described in Example 5.

`CCCN(CC)CC1COC2(CCC(C(C)(C)C)CC2)O1` (stereo not drawn) [Spiroxamine, spiroxamine] was tested, and the “Number of moulded oranges/total number of 8 oranges” value (Day 11, 20° C., 250 ppm natamycin, 200 ppm spiroxamine or both) was 7 and 7/8, the “Number of moulded oranges/total number of 8 oranges” value (Day 12, 20° C., 250 ppm natamycin, 200 ppm spiroxamine or both) was 8 and 8/8 and the “Number of moulded oranges/total number of 8 oranges” value (Day 13, 20° C., 250 ppm natamycin, 200 ppm spiroxamine or both) was 8/8. For the same compound, the “Number of moulded oranges/total number of 8 oranges” value (Day 14-15, 20° C., 250 ppm natamycin, 200 ppm spiroxamine or both) was 8/8, the “Number of moulded oranges/total number of 8 oranges” value (Day 14-16, 20° C., 500 ppm natamycin, 400 ppm spiroxamine or both) was 8/8 and the “Number of moulded oranges/total number of 8 oranges” value (Day 16, 20° C., 250 ppm natamycin, 200 ppm spiroxamine or both) was 8 and 8/8. For the same compound, the “Number of moulded oranges/total number of 8 oranges” value (Day 18, 20° C., 250 ppm natamycin, 200 ppm spiroxamine or both) was 8 and 8/8, the “Number of moulded oranges/total number of 8 oranges” value (Day 18, 20° C., 500 ppm natamycin, 400 ppm spiroxamine or both) was 8/8 and the “Number of moulded oranges/total number of 8 oranges” value (Day 19-21, 20° C., 500 ppm natamycin, 400 ppm spiroxamine or both) was 8 and 8/8. For the same compound, the “Number of moulded oranges/total number of 8 oranges” value (Day 19-25, 20° C., 250 ppm natamycin, 200 ppm spiroxamine or both) was 8/8, the “Number of moulded oranges/total number of 8 oranges” value (Day 22-23, 20° C., 500 ppm natamycin, 400 ppm spiroxamine or both) was 8 and 8/8 and the “Number of moulded oranges/total number of 8 oranges” value (Day 26, 20° C., 250 ppm natamycin, 200 ppm spiroxamine or both) was 8/8. For the same compound, the “moulded oranges of the 8 oranges” value (after 14 through 16 days and 18 days of incubation, 500 ppm natamycin, 400 ppm spiroxamine) was 8, the “moulded oranges of the 8 oranges” value (days 13 through 15, 250 ppm natamycin, 200 ppm spiroxamine or both) was 8 and the “moulded oranges of the 8 oranges” value (days 19 through 26, 250 ppm natamycin, 200 ppm spiroxamine or both) was 8. For the same compound, the “Observed antifungal activity O (%)” value (day 11, 250 ppm natamycin, 200 ppm spiroxamine or both) was 75%, the “Observed antifungal activity O (%)” value (day 12, 250 ppm natamycin, 200 ppm spiroxamine or both) was 64% and the “Observed antifungal activity O (%)” value (day 13, 250 ppm natamycin, 200 ppm spiroxamine or both) was 48%. The “Observed antifungal activity O (%)” value (day 14, 250 ppm natamycin, 200 ppm spiroxamine or both) was 39%, the “Observed antifungal activity O (%)” value (day 15, 250 ppm natamycin, 200 ppm spiroxamine or both) was 31% and the “Observed antifungal activity O (%)” value (day 16, 250 ppm natamycin, 200 ppm spiroxamine or both) was 20%. For the same compound, the “Observed antifungal activity O (%)” value (day 18, 250 ppm natamycin, 200 ppm spiroxamine or both) was 3%, the “Observed antifungal activity O (%)” value (day 18, 500 ppm natamycin, 400 ppm spiroxamine or both) was 22% and the “Observed antifungal activity O (%)” value (day 19, 250 ppm natamycin, 200 ppm spiroxamine or both) was 0%. The “Observed antifungal activity O (%)” value (day 19, 500 ppm natamycin, 400 ppm spiroxamine or both) was 8%, the “Observed antifungal activity O (%)” value (day 20, 250 ppm natamycin, 200 ppm spiroxamine or both) was 0% and the “Observed antifungal activity O (%)” value (day 20, 500 ppm natamycin, 400 ppm spiroxamine or both) was 0%. The “Observed antifungal activity O (%)” value (day 21, 250 ppm natamycin, 200 ppm spiroxamine or both) was 0%, the “Observed antifungal activity O (%)” value (day 21, 500 ppm natamycin, 400 ppm spiroxamine or both) was 0% and the “Observed antifungal activity O (%)” value (day 22, 250 ppm natamycin, 200 ppm spiroxamine or both) was 0%. The “Observed antifungal activity O (%)” value (day 22, 500 ppm natamycin, 400 ppm spiroxamine or both) was 0%, the “Observed antifungal activity O (%)” value (day 23, 250 ppm natamycin, 200 ppm spiroxamine or both) was 0% and the “Observed antifungal activity O (%)” value (day 23, 500 ppm natamycin, 400 ppm spiroxamine or both) was 0%. The “Observed antifungal activity O (%)” value (day 25-26, 500 ppm natamycin, 400 ppm spiroxamine or both) was 0%, the “Observed antifungal activity O (%)” value (day 25, 250 ppm natamycin, 200 ppm spiroxamine or both) was 0% and the “Observed antifungal activity O (%)” value (day 26, 250 ppm natamycin, 200 ppm spiroxamine or both) was 0%.
